Here are results for 34 compounds from patent US20060094719A1, “Tetralin histamine-3 receptor antagonists” (Pfizer Inc, priority 2004, published 2006).

One data set deals with T1, rat histamine H3 receptors (Rattus norvegicus, UniProt Q9QYN8).
T1 construct: Frozen rat frontal brain or frozen human post-mortem frontal brain is homogenized; from tissue; host or cells: rat frontal brain membranes
T1 sequence (Q9QYN8 whole entry): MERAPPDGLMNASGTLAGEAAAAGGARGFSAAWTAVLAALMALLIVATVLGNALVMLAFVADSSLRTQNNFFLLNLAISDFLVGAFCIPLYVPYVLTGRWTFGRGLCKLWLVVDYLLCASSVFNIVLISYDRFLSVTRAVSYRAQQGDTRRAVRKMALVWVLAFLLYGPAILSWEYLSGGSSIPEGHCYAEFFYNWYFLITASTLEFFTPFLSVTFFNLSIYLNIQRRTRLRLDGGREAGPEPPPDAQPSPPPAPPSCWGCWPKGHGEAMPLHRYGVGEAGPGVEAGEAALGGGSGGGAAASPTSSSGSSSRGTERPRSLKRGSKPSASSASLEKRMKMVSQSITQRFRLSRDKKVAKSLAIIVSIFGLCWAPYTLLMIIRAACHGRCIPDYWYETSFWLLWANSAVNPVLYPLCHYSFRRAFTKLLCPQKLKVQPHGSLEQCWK
In words: Rat H3 binding, 3H-N-methylhistamine displacement in frontal brain membranes. To be noted: radioligand 1 nM 3H-N-methylhistamine, 1-hour incubation. As for the experimental part:
The in vitro affinity of the compounds in the present invention at the rat or human histamine H3 receptors can be determined according to the following procedure. Frozen rat frontal brain or frozen human post-mortem frontal brain is homogenized in 20 volumes of cold 50 mM Tris.HCl containing 2 mM MgCl2 (pH to 7.4 at 4° C.). The homogenate is then centrifuged at 45,000 G for 10 minutes. The supernatant is decanted and the membrane pellet re-suspended by Polytron in cold 50 mM Tris.HCl containing 2 mM MgCl2 (pH to 7.4 at 4 degrees C.) and centrifuged again. The final pellet is re-suspended in 50 mM Tris HCl containing 2 mM MgCl2 (pH to 7.4 at 25 degrees C.) at a concentration of 12 mg/mL. Dilutions of compounds are made in 10% DMSO/50 mM Tris buffer (pH 7.4) (at 10×final concentration, so that the final DMSO concentration is 1%). Incubations are initiated by the addition of membranes (200 microliters) to 96-well V-bottom polypropylene plates containing 25 microliters of drug dilutions and 25 microliters of radioligand (1 nM final concentration ^3H-N-methylhistamine). After a 1-hour incubation, assay samples are rapidly filtered through Whatman GF/B filters and rinsed with ice-cold 50 mM Tris buffer (pH 7.4) using a Skatron cell harvester. Radioactivity is quantified using a BetaPlate scintillation counter.
What is called Ki is the dissociation constant of the complex between target and ligand, obtained from inhibition or displacement. Low readings indicate tighter binding, high ones weaker binding. As to `c1cc2c(cc1OCCCN1CCCCC1)CCC(CN1CCCC1)C2` (racemic) [3 (±), (±)-1-[3-(6-Pyrrolidin-1-ylmethyl-5,6,7,8-tetrahydro-naphthalen-2-yloxy)-propyl]-piperidine], the Ki is 8.4 nM.

`Cl.c1cc2c(cc1OCCCN1CCCC1)CCC(CN1CCCC1)C2` (racemic) [6 (±), (±)-1-[3-(6-Pyrrolidin-1-ylmethyl-5,6,7,8-tetrahydro-naphthalen-2-yloxy)-propyl]-pyrrolidine hydrochloride] returned a Ki of 9 nM.

As to `Cl.c1cc2c(cc1OCCCN1CCC(N3CCCCC3)CC1)CCC(CN1CCCC1)C2` (racemic) [7 (±), (±)-1′-[3-(6-Pyrrolidin-1-ylmethyl-5,6,7,8-tetrahydro-naphthalen-2-yloxy)-propyl]-[1,4′]bi-piperidinyl hydrochloride], the affinity, expressed as Ki, was 3 nM.

For the compound `CC1CCCN(CCCOc2ccc3c(c2)CCC(CN2CCCC2)C3)C1` (single isomer, unassigned; (+)) [40 (+), (+)-3-Methyl-1-[3-(6-pyrrolidin-1-ylmethyl-5,6,7,8-tetrahydro-naphthalen-2-yloxy)-propyl]-piperidine], the affinity, expressed as Ki, was 8.4 nM.

Regarding `Fc1ccc(C2CCCN2CCCOc2ccc3c(c2)CCC(CN2CCCC2)C3)cc1` (single isomer, unassigned; (+)) [71 (+), (+)-2-(4-Fluorophenyl)-1-[3-(6-pyrrolidin-1-ylmethyl-5,6,7-8-tetrahydro-naphthalen-2-yloxy)-propyl]-pyrrolidine], the Ki came out at 9.6 nM.

`Cl.c1cc2c(cc1OCCCN1CCCCC1)CCC(CN1CCCC1)C2` (single isomer, unassigned; (-)) [10 (−), (−)-1-[3-(6-Pyrrolidin-1-ylmethyl-5,6,7,8-tetrahydro-naphthalen-2-yloxy)-propyl]-piperidine hydrochloride] yielded a Ki of 1.1 nM.

`CC1(C)CCCN(CCCOc2ccc3c(c2)CCC(CN2CCCC2)C3)C1.Cl` (single isomer, unassigned; (-)) [15 (−), (−)-3,3-Dimethyl-1-[3-(6-pyrrolidin-1-ylmethyl-5,6,7,8-tetrahydro-naphthalen-2-yloxy)-propyl]-piperidine hydrochloride] came in with a Ki of 5 nM.

For the compound `Cl.c1cc2c(cc1OCCCNC1CCC3(CCCCC3)CC1)CCC(CN1CCCC1)C2` (single isomer, unassigned; (-)) [16 (−), (−)-[3-(6-Pyrrolidin-1-ylmethyl-5,6,7,8-tetrahydro-naphthalen-2-yloxy)-propyl]-spiro[5.5]undec-3-ylamine hydrochloride], the Ki is 7.2 nM.

Take `Clc1ccc(CNCCCOc2ccc3c(c2)CCC(CN2CCCC2)C3)cc1` (single isomer, unassigned; (-)) [24 (−), (−)-(4-Chlorobenzyl)-[3-(6-pyrrolidin-1-ylmethyl-5,6,7,8-tetrahydro-naphthalen-2-yloxy)-propyl]-amine]: the Ki came to 0.84 nM.

Compound `Clc1ccc(CNCCCOc2ccc3c(c2)CCC(CN2CCCC2)C3)cc1Cl` (single isomer, unassigned; (-)) [27 (−), (−)-(3,4-Dichlorobenzyl)-[3-(6-pyrrolidin-1-ylmethyl-5,6,7,8-tetrahydro-naphthalen-2-yloxy)-propyl]-amine] came in with a Ki of 1.58 nM.

For the compound `c1ccc(CNCCCOc2ccc3c(c2)CCC(CN2CCCC2)C3)cc1` (single isomer, unassigned; (-)) [28 (−), (−)-Benzyl-[3-(6-pyrrolidin-1-ylmethyl-5,6,7,8-tetrahydro-naphthalen-2-yloxy)-propyl]-amine], the affinity corresponds to a Ki of 4.7 nM.

For the compound `Fc1ccc(CNCCCOc2ccc3c(c2)CCC(CN2CCCC2)C3)cc1` (single isomer, unassigned; (-)) [32 (−), (−)-(4-Fluorobenzyl)-[3-(6-pyrrolidin-1-ylmethyl-5,6,7,8-tetrahydro-naphthalen-2-yloxy)-propyl]-amine], the affinity corresponds to a Ki of 1.25 nM.

For `CC1CCCN(CCCOc2ccc3c(c2)CCC(CN2CCCC2)C3)C1` (single isomer, unassigned; (-)) [40 (−), (−)-3-Methyl-1-[3-(6-pyrrolidin-1-ylmethyl-5,6,7,8-tetrahydro-naphthalen-2-yloxy)-propyl]-piperidine], the affinity corresponds to a Ki of 3.54 nM.

The compound `CC1CCCCN1CCCOc1ccc2c(c1)CCC(CN1CCCC1)C2` (single isomer, unassigned; (-)) [41 (−), (−)-2-Methyl-1-[3-(6-pyrrolidin-1-ylmethyl-5,6,7,8-tetrahydro-naphthalen-2-yloxy)-propyl]-piperidine] had a Ki of 5.89 nM.

The compound `CC1CCN(CCCOc2ccc3c(c2)CCC(CN2CCCC2)C3)CC1` (single isomer, unassigned; (-)) [42 (−), (−)-4-Methyl-1-[3-(6-pyrrolidin-1-ylmethyl-5,6,7,8-tetrahydro-naphthalen-2-yloxy)-propyl]-piperidine] returned a Ki of 4.32 nM.

In the case of `CC(CN1CCOCC1)NCCCOc1ccc2c(c1)CCC(CN1CCCC1)C2` (single isomer, unassigned; (-)) [51 (−), (−)-(1-Methyl-2-morpholin-4-ylethyl)-[3-(6-pyrrolidin-1-ylmethyl-5,6,7,8-tetrahydro-naphthalen-2-yloxy)-propyl]-amine], the affinity corresponds to a Ki of 6.2 nM.

Turning to `CN(CCCOc1ccc2c(c1)CCC(CN1CCCC1)C2)Cc1ccco1` (single isomer, unassigned; (-)) [55 (−), (−)-Furan-2-ylmethyl-[3-(6-pyrrolidin-1-ylmethyl-5,6,7,8-tetrahydro-naphthalen-2-yloxy)-propyl]-methylamine], the Ki was 4.5 nM.

On to `c1cc2c(cc1OCCCNC1CCCCC1)CCC(CN1CCCC1)C2` (single isomer, unassigned; (-)) [64 (−), (−)-[3-(6-pyrrolidin-1-ylmethyl-5,6,7,8-tetrahydro-naphthalen-2-yloxy)-propyl]-cyclohexyl-amine], for which the affinity corresponds to a Ki of 4.36 nM.

In turn, `c1cc2c(cc1OCCCN1CC3CCCC1C3)CCC(CN1CCCC1)C2` (single isomer, unassigned; (-)) [65 (−), (−)-6-[3-(6-Pyrrolidin-1-ylmethyl-5,6,7,8-tetrahydro-naphthalen-2-yloxy)-propyl]-6-azabicyclo-[3.2.1]octane] gave a Ki of 2.11 nM.

The compound `Fc1ccc(CNCCCOc2ccc3c(c2)CCC(CN2CCCC2)C3)cc1F` (single isomer, unassigned; (-)) [77 (−), (−)-(3,4-Difluorobenzyl)-[3-(6-pyrrolidin-1-ylmethyl-5,6,7,8-tetrahydro-naphthalen-2-yloxy)-propyl]-amine] returned a Ki of 1.95 nM.

The compound `Clc1ccc(CNCCCOc2ccc3c(c2)CCC(CN2CCCC2)C3)c(Cl)c1` (single isomer, unassigned; (-)) [79 (−), (−)-(2,4-Dichlorobenzyl)-[3-(6-pyrrolidin-1-ylmethyl-5,6,7,8-tetrahydro-naphthalen-2-yloxy)-propyl]-amine] returned a Ki of 1.9 nM.

`CC1CC(C)CN(CCCOc2ccc3c(c2)CCC(CN2CCCC2)C3)C1` (single isomer, unassigned; (-)) [81 (−), (−)-3,5-Dimethyl-1-[3-(6-pyrrolidin-1-ylmethyl-5,6,7,8-tetrahydro-naphthalen-2-yloxy)-propyl]-piperidine] yielded a Ki of 9.14 nM.

Tested on in the next data set: not given
Experiment: not given
Settings: not given
In general, melting point refers to the temperature, or range, at which the solid turns liquid. For `Cl.c1cc2c(cc1OCCCNC1CC3CCC1C3)CCC(CN1CCCC1)C2` (stereo not shown), the melting point was in the range of 265.4 to 266.3 °C.

In turn, `Cl.c1cc2c(cc1OCCCN1CCC3(CCCCC3)CC1)CCC(CN1CCCC1)C2` (stereo not shown) had a melting point of 287.6 to 290.2 °C.

`CN(C)CCOc1ccc2c(c1)CCC(CN1CCCC1)C2.Cl` (racemic) returned a melting point of 131.6 to 132.8 °C.

Turning to `Cl.NC(=O)C1CCN(CCCOc2ccc3c(c2)CCC(CN2CCCC2)C3)CC1` (racemic), the melting point was 211 to 213 °C.

On to `CN(C)CCCOc1ccc2c(c1)CCC(CN1CCCC1)C2.Cl` (racemic) [1], for which the melting point was 187.7 to 188.7 °C.

In turn, `c1cc2c(cc1OCCCN1CCCCC1)CCC(CN1CCCC1)C2` (racemic) [3 (±), (±)-1-[3-(6-Pyrrolidin-1-ylmethyl-5,6,7,8-tetrahydro-naphthalen-2-yloxy)-propyl]-piperidine] yielded a melting point of 180 to 181.4 °C.

In the case of `Cl.c1cc2c(cc1OCCCN1CCOCC1)CCC(CN1CCCC1)C2` (racemic) [4], the melting point is 259.9 to 261.4 °C.

In turn, `Cl.c1cc2c(cc1OCCCN1CCCC1)CCC(CN1CCCC1)C2` (racemic) [6 (±), (±)-1-[3-(6-Pyrrolidin-1-ylmethyl-5,6,7,8-tetrahydro-naphthalen-2-yloxy)-propyl]-pyrrolidine hydrochloride] came in with a melting point of 149.4 to 150.5 °C.

For the compound `Cl.c1cc2c(cc1OCCCN1CCC(N3CCCCC3)CC1)CCC(CN1CCCC1)C2` (racemic) [7 (±), (±)-1′-[3-(6-Pyrrolidin-1-ylmethyl-5,6,7,8-tetrahydro-naphthalen-2-yloxy)-propyl]-[1,4′]bi-piperidinyl hydrochloride], the melting point is 284.8 °C (dec.).

Consider `NC(=O)C1CCCN(CCCOc2ccc3c(c2)CCC(CN2CCCC2)C3)C1` (racemic) [Example 9, (±)-1-[3-(6-Pyrrolidin-1-ylmethyl-5,6,7,8-tetrahydro-naphthalen-2-yloxy)-propyl]-piperidine-3-carboxylic acid amide], for which the melting point was 102 to 103.2 °C.

Regarding `Cl.c1cc2c(cc1OCCCN1CCCCC1)CCC(CN1CCCC1)C2` (single isomer, unassigned; (-)) [10 (−), (−)-1-[3-(6-Pyrrolidin-1-ylmethyl-5,6,7,8-tetrahydro-naphthalen-2-yloxy)-propyl]-piperidine hydrochloride], the melting point was 286.6 to 286.8 °C.

With `CC1(C)CCCN(CCCOc2ccc3c(c2)CCC(CN2CCCC2)C3)C1.Cl` (single isomer, unassigned; (-)) [15 (−), (−)-3,3-Dimethyl-1-[3-(6-pyrrolidin-1-ylmethyl-5,6,7,8-tetrahydro-naphthalen-2-yloxy)-propyl]-piperidine hydrochloride], the melting point fell in the range of 202 to 204 °C.

The compound `Cl.c1cc2c(cc1OCCCNC1CCC3(CCCCC3)CC1)CCC(CN1CCCC1)C2` (single isomer, unassigned; (-)) [16 (−), (−)-[3-(6-Pyrrolidin-1-ylmethyl-5,6,7,8-tetrahydro-naphthalen-2-yloxy)-propyl]-spiro[5.5]undec-3-ylamine hydrochloride] gave a melting point of 291.5 to 292.9 °C.

For `Cl.c1cc2c(cc1OCCCN1CCOCC1)CCC(CN1CCCC1)C2` (stereo not shown) [5], the melting point was in the range of 255.4 to 256.4 °C.

Consider `Cl.c1cc2c(cc1OCCCN1CCOCC1)CCC(CN1CCCC1)C2` (stereo not shown) [11], for which the melting point is 281.8 to 282.7 °C.

`Cl.c1cc2c(cc1OCCCN1CCCCC1)CCC(CN1CCCC1)C2` (stereo not shown) [12] had a melting point of 256.6 to 258.4 °C.

The compound `CN(C)CCCOc1ccc2c(c1)CCC(CN1CCCC1)C2.Cl` (stereo not shown) [13] returned a melting point of 230.6 to 232.8 °C.

As to `Cl.c1cc2c(cc1OCCCN1CCOCC1)CCC(CN1CCCC1)C2` (stereo not shown) [14], the melting point was 249.6 to 250.4 °C.
